Measurements from patent US11650214B2, “Proteins of the WNT signaling pathway and uses thereof in the diagnostic and treatment of hypopigmentation disorders” (INSERM (INSTITUT NATIONAL DE LA SANTÉ ET DE LA RECHERCHE …, priority 2014, dated 2023).

What was measured:
Type in all cases: cell-based, human
[1] = test system: WNT pathway in lesional skin from vitiligo patients; assay: Ex vivo culture of lesional vitiligo skin biopsies with WNT pathway activators, RT-qPCR; conditions: 14 days, SKL2001 40 μM; for mRNA level of early melanoblast marker Brn2 / mRNA level of early melanoblast marker PAX3 / relative mRNA expression of LEF / relative mRNA expression of WNT family: CHIR99021 3 μM, LiCl 20 μM; for relative mRNA expression of LEF / relative mRNA expression of WNT family: stimulation every other day, n=9
Protocol: (§1) Vitiligo patients (n=9) were biopsied in lesional skin area. The biopsies were stimulated in ex vivo culture during 14 days with GSK3β inhibitor: CHIR99021 (3 μM) or LiCl (20 μM) or with WNT agonist: SKL2001 (40 μM) every other day. mRNA was extracted and a RT-qPCR was performed to quantify the relative expression of LEF (A) and the pre-melanocytes markers PAX3 (B), Brn2 (C) MITF (D) and DCT (E).
as §1, with “WNT family” for “LEF (A) and the pre-melanocytes markers PAX3 (B), Brn2 (C) MITF (D) and DCT (E).”
For vitiligo skin biopsies, after verification of the absence of melanocytes with Wood's lamp, two or three 6 mm biopsies composed of dermis plus epidermis were taken into lesional skin from vitiligo patients (n=9). The biopsies are rapidly put on transwell chamber of 0.4 μm (Becton Dickinson) and kept on semi liquid culture conditions in “Skin long term culture medium” (Biopredic). The skin was maintained at 37° C. in a wet 5% CO2 atmosphere.
The culture medium supplemented with Forskolin (Sigma Aldrich), LiCl (Sigma Aldrich), CHIR99021 (Calbiochem) or SKL2001 (Calbiochem) was changed […] during 14 days.
mRNA from melanocytes and keratinocytes was extracted with RNeasy kit (Qiagen). The biopsies are cut and disrupted with tissue ruptor (Qiagen) and the mRNA was extracted with RNeasy kit (Qiagen). cDNA were synthesized from 300 ng to 1 μg of mRNA with the Reverse Transcription System (Promega). Relative quantification of gene expression was measured by real time qPCR with Sybr green reagent (Life technology) on Step one system.
In order to induce the differentiation of melanocyte stem cells, they pharmacologically activated the WNT pathway in vitiligo skin cultured ex vivo as shown previously. They used two methods to activate the WNT pathway: a WNT agonist (SKL2001) and two GSK3β inhibitors: lithium chloride (LiCl) and a commercial specific inhibitor (CHIR99021). They biopsied 9 vitiligo subjects (6 mm punch) on diverse body locations ([…], 2 on trunk, 2 on leg, 1 on arm and 1 on axilla) and treated the ex vivo culture model during 14 days with a systemic stimulation every other day with the WNT activators.
They evaluated the activation of WNT pathway by the mRNA level of WNTs (TCF/LEF1 and the melanogenesis pathway by the mRNA level of MITF, DCT, PAX3 and BRn2) within the skin. Treatments with LiCl, CHIR99021 and SKL2001 induce an increase of all WNT and LEF after 14 days of stimulation (FIG. 6A and FIG. 11).

NHK (keratinocytes) = assay: Oxidative stress (H2O2) in NHK, qPCR of LEF1 and WNT family; conditions: 24 hours
Protocol: (§2) NHM (A) and NHK (B) and whole skin in ex vivo culture (C) were stimulated 24 hours with 25 to 100 μM of H2O2. After mRNA extraction, a reverse transcription was performed and the relative gene expression of LEF1 was analyzed with qPCR.
(§3) (A) NHM, (B) NHK and (C) whole skin in ex vivo culture were stimulated 24 hours with 25 to 100 μM of H2O2. After mRNA extraction, a reverse transcription was performed and the relative gene expression of WNT family was analyzed with qPCR.
(§4) NHMs and NHKs are obtained from the foreskin of phototype IV children as described previously. Briefly, epidermal cells are obtained by overnight digestion of the skin in a dispase solution (Roche) at 4° C. followed by the digestion of the epidermis in a trypsin/EDTA solution during 20 minutes at 37° C. […]
(§5) mRNA from melanocytes and keratinocytes was extracted with RNeasy kit (Qiagen). […] Relative quantification of gene expression was measured by real time qPCR with Sybr green reagent (Life technology) on Step one system.
(§6) Since the WNT pathway, implicated in melanocytes differentiation, seems to be affected in vitiligo skin, inventors tried to determine the element—known to be involved in vitiligo—responsible for this dysregulation. […] They induced an oxidative stress with H2O2 in melanocytes and keratinocytes and analyzed the expression of LEF and WNT family. […]

NHM (melanocytes) = assay: Oxidative stress (H2O2) in NHM, qPCR of LEF1 and WNT family; conditions: 24 hours
Protocol: as §2, §3, §4, §5, §6

[2] = test system: whole skin in ex vivo culture; assay: Oxidative stress (H2O2) in whole skin in ex vivo culture, qPCR of LEF1 and WNT family; conditions: whole skin biopsies ex vivo, 24 hours, 25 to 100 μM H2O2
Protocol: as §2, §3
Skin from abdominoplasty surgery was used to the development of the ex vivo skin culture model. The subcutaneous fat was removed and biopsies of 6 mm were done in the skin composed of dermis and epidermis.
as §5, §6

[3] = 25 to 100 μM H2O2, majority of WNT

## Cc1c[nH]c(-c2cnc(NCCNc3ccc(C#N)cn3)nc2-c2ccc(Cl)cc2Cl)n1 [CHIR99021]
[1]
  mRNA level of early melanoblast marker Brn2: up-regulated
  mRNA level of early melanoblast marker PAX3: up-regulated
  relative mRNA expression of LEF: increase
  relative mRNA expression of WNT family: increase

## OO [H2O2]
NHK (keratinocytes); 25 to 100 μM H2O2
  expression of LEF: decreased
NHK (keratinocytes); [3]
  expression of WNT family: decreased
NHM (melanocytes); 25 to 100 μM H2O2
  expression of LEF: decreased
NHM (melanocytes); [3]
  expression of WNT family: decreased
[2]
  expression of LEF: decrease expression
[2]; most of the WNT family
  expression of WNT family: decrease expression

## O=C(NCCCn1ccnc1)c1cc(-c2ccco2)on1 [SKL2001]
[1]
  mRNA level of early melanoblast marker Brn2: up-regulated
  mRNA level of early melanoblast marker PAX3: up-regulated
  mRNA level of MITF: increased
  relative mRNA expression of LEF: increase
  relative mRNA expression of WNT family: increase
